Patent publication US10106524B2, “2,3,4,5-tetrahydropyridin-6-amine and 3,4-dihydro-2H-pyrrol-5-amine compound inhibitors of beta-secretase” (Janssen Pharmaceutica NV, priority 2015, dated 2018)

Experiments:
[1] = molecular target: T1, recombinant BACE1 protein (Homo sapiens, UniProt P56817); assay: BACE1 biochemical FRET based assay - Method 2; conditions: BACE1 0.04 μg/ml, 450 minutes, 20 μM substrate, pH 5.0; read-out: Biochemical FRET based assay- Method 2 pIC50 (converted)
T1 construct: recombinant BACE1 protein in a final concentration of 1 μg/ml
Description: BACE1 Biochemical FRET Based Assay
(§1) This assay is a Fluorescence Resonance Energy Transfer Assay (FRET) based assay. The substrate for this assay is an APP derived 13 amino acids peptide that contains the ‘Swedish’ Lys-Met/Asn-Leu mutation of the amyloid precursor protein (APP) beta-secretase cleavage site. This substrate also contains two fluorophores: (7-methoxycoumarin-4-yl) acetic acid (Mca) is a fluorescent donor with excitation wavelength at 320 nm and emission at 405 nm and 2,4-Dinitrophenyl (Dnp) is a proprietary quencher acceptor. […] Upon cleavage by BACE1, the fluorophore Mca is separated from the quenching group Dnp, restoring the full fluorescence yield of the donor. The increase in fluorescence is linearly related to the rate of proteolysis.
Briefly in a 384-well format recombinant BACE1 protein in a final concentration of 0.04 μg/ml is incubated for 450 minutes at room temperature with 20 μM substrate in incubation buffer (50 mM Citrate buffer pH 5.0, 0.05% PEG) in the presence of compound or DMSO. Next the amount of proteolysis is directly measured by fluorescence measurement (excitation at 320 nm and emission at 405 nm) at different incubation times (0, 30, 60, 90, 120 and 450 min). For every experiment a time curve (every 30 min between 0 min and 120 min) is used to determine the time where we find the lowest basal signal of the high control. The signal at this time (Tx) is used to subtract from the signal at 450 min. Results are expressed in RFU, as difference between T450 and Tx.
(§2) A best-fit curve is fitted by a minimum sum of squares method to the plot of % Controlmin versus compound concentration. From this an IC50 value (inhibitory concentration causing 50% inhibition of activity) can be obtained.

[2] = molecular target: T2, recombinant BACE2 protein (Homo sapiens, UniProt Q9Y5Z0); assay: BACE2 biochemical FRET based assay; conditions: BACE2 0.4 μg/nil, 450 minutes, 10 μM substrate, pH 5.0; read-out: Biochemical FRET based assay pIC50 (BACE2) (converted)
T2 construct: recombinant BACE2 protein in a final concentration of 0.4 μg/nil
T2 sequence (Q9Y5Z0 63-518): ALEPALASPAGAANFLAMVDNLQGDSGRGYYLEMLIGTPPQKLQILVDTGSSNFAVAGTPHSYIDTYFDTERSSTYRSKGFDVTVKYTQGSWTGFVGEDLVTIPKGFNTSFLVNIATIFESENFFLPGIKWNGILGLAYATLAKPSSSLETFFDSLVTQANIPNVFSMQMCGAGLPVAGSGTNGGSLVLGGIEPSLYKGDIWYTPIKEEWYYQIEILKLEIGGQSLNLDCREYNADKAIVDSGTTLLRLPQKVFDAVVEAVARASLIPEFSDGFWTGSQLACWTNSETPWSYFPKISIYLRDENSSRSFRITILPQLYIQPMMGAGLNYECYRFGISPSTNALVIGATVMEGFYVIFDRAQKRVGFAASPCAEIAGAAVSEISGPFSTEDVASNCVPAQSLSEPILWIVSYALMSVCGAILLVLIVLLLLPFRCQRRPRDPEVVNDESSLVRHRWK
Description: BACE2 Biochemical FRET Based Assay
as §1, with “assay” for “assay is an APP derived 13 amino acids peptide that”, “the beta-secretase,” for “BACE1,”
Briefly in a 384-well format recombinant BACE2 protein in a final concentration of […] is incubated for 450 minutes at room temperature with 10 μM substrate in incubation buffer (50 mM Citrate buffer pH 5.0, 0.05% PEG, no DMSO) in the absence or presence of compound. Next the amount of proteolysis is directly measured by fluorescence measurement at T=0 and T=450 (excitation at 320 nm and emission at 405 nm). Results are expressed in RFU (Relative Fluorescence Units), as difference between T450 and T0.
as §2

[3] = system: Abeta 1-42 produced and secreted by SKNBE2 cells expressing hAPP695; assay: Cellular αLisa assay in SKNBE2 cells - Abeta 42; format: cell-based, human; conditions: Homo sapiens, incubated for 18 hours, read-out: Cellular αLisa assay in SKNBE2 cells Abeta 42 pIC50 (converted)
Procedure: Cellular αLisa Assay in SKNBE2 Cells
In two αLisa assays the levels of Abeta total and Abeta 1-42 produced and secreted into the medium of human neuroblastoma SKNBE2 cells are quantified. The assay is based on the human neuroblastoma SKNBE2 expressing the wild type Amyloid Precursor Protein (hAPP695). The compounds are diluted and added to these cells, incubated for 18 hours and then measurements of Abeta 1-42 and Abeta total are taken. Abeta total and Abeta 1-42 are measured by sandwich αLisa. αLisa is a sandwich assay using biotinylated antibody AbN/25 attached to streptavidin coated beads and antibody Ab4G8 or cAb42/26 conjugated acceptor beads for the detection of Abeta total and Abeta 1-42 respectively. In the presence of Abeta total or Abeta 1-42, the beads come into close proximity. The excitation of the donor beads provokes the release of singlet oxygen molecules that trigger a cascade of energy transfer in the acceptor beads, resulting in light emission. Light emission is measured after 1 hour incubation (excitation at […] and emission at 615 nm).
as §2

T1 sequence (P56817 46-501): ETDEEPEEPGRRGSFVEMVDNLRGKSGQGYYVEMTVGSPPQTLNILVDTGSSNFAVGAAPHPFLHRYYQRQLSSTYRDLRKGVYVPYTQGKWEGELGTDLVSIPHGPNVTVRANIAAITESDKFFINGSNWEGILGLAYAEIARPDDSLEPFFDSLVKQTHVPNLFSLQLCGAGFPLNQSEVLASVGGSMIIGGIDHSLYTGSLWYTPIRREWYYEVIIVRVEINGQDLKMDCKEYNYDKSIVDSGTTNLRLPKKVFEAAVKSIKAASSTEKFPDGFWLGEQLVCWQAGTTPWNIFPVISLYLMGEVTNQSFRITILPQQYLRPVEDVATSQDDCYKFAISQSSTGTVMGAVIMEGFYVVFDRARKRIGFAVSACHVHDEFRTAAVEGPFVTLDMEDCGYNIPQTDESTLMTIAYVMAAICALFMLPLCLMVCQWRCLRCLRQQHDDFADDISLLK

Compound | IC50 [1] | IC50 [2] | IC50 [3]
CC1(c2cc(Nc3ncccc3C#N)ccc2F)N=C(N)CC1C(F)(F)F (racemic) [Compound 22, (±)-2-[3-[(2S*,3R*)-5-amino-2-methyl-3-(trifluoromethyl)-3,4-dihydropyrrol-2-1]-4-fluoro-anilino]pyridine-3-carbonitrile] | 3720 nM | ≥ 10000 nM | 776 nM
C[C@@]1(c2cc(NC(=O)c3ccc(C#N)cn3)ccc2F)N=C(N)C[C@@H]1C(F)(F)F [Compound 25, N-[3-[(2R,3S)-5-amino-2-methyl-3-(trifluoromethyl)-3,4-dihydropyrrol-2-yl]-4-fluoro-phenyl]-5-cyano-pyridine-2-carboxamide] | 182 nM | 1070 nM | 60.3 nM
C[C@]1(c2cc(NC(=O)c3ccc(C#N)cn3)ccc2F)N=C(N)C[C@H]1C(F)(F)F [Compound 26, N-[3-[(2S,3R)-5-amino-2-methyl-3-(trifluoromethyl)-3,4-dihydropyrrol-2-yl]-4-fluoro-phenyl]-5-cyano-pyridine-2-carboxamide] | > 10000 nM | > 10000 nM | > 8910 nM
COc1cnc(C(=O)Nc2ccc(F)c([C@]3(C)N=C(N)C[C@@H]3C(F)(F)F)c2)cn1 [Compound 27, N-[3-[(2R,3S)-5-amino-2-methyl-3-(trifluoromethyl)-3,4-dihydropyrrol-2-yl]-4-fluoro-phenyl]-5-methoxy-pyrazine-2-carboxamide] | 389 nM | 5890 nM | 100 nM
COc1cccnc1Nc1ccc(F)c([C@]2(C)N=C(N)C[C@@H]2C(F)(F)F)c1 [Compound 28, N-[3-[(2R,3S)-5-amino-2-methyl-3-(trifluoromethyl)-3,4-dihydropyrrol-2-yl]-4-fluoro-phenyl]-3-methoxy-pyridin-2-amine] | 1200 nM | 617 nM | 347 nM
COCCOc1cnc(C(=O)Nc2ccc(F)c([C@]3(C)N=C(N)C[C@@H]3C(F)(F)F)c2)cn1 [Compound 29, N-[3-[(2R,3S)-5-amino-2-methyl-3-(trifluoromethyl)-3,4-dihydropyrrol-2-yl]-4-fluoro-phenyl]-5-(2-methoxyethoxy)pyrazine-2-carboxamide] | 447 nM | > 20000 nM | 151 nM
COCCOc1cnc(C(=O)Nc2ccc(F)c([C@@]3(C)N=C(N)C[C@H]3C(F)(F)F)c2)cn1 [Compound 30, N-[3-[(2S,3R)-5-amino-2-methyl-3-(trifluoromethyl)-3,4-dihydropyrrol-2-yl]-4-fluoro-phenyl]-5-(2-methoxyethoxy)pyrazine-2-carboxamide] | > 10000 nM | > 20000 nM | > 8910 nM
C[C@@]1(c2cc(NC(=O)c3cnc(OCC(F)(F)F)cn3)ccc2F)N=C(N)C[C@@H]1C(F)(F)F [Compound 31, N-[3-[(2R,3S)-5-amino-2-methyl-3-(trifluoromethyl)-3,4-dihydropyrrol-2-yl]-4-fluoro-phenyl]-5-(2,2,2-trifluoroethoxy)pyrazine-2-carboxamide] | 457 nM | > 20000 nM | 257 nM
C[C@]1(c2cc(NC(=O)c3cnc(OCC(F)(F)F)cn3)ccc2F)N=C(N)C[C@H]1C(F)(F)F [Compound 32, N-[3-[(2S,3R)-5-amino-2-methyl-3-(trifluoromethyl)-3,4-dihydropyrrol-2-yl]-4-fluoro-phenyl]-5-(2,2,2-trifluoroethoxy)pyrazine-2-carboxamide] | > 10000 nM | > 20000 nM | > 8910 nM
C[C@@]1(c2cc(NC(=O)c3ccc(Br)cn3)ccc2F)N=C(N)C[C@@H]1C(F)(F)F [Compound 33, N-[3-[(2R,3S)-5-amino-2-methyl-3-(trifluoromethyl)-3,4-dihydropyrrol-2-yl]-4-fluoro-phenyl]-5-bromo-pyridine-2-carboxamide] | 229 nM | 513 nM | 36.3 nM
COc1cnc(C(=O)Nc2ccc(F)c([C@@]3(C)N=C(N)C[C@H]3C(F)(F)F)c2)cn1 [Compound 34, N-[3-[(2S,3R)-5-amino-2-methyl-3-(trifluoromethyl)-3,4-dihydropyrrol-2-yl]-4-fluoro-phenyl]-5-methoxy-pyrazine-2-carboxamide] | > 10000 nM | – | –
Cc1nc(C(=O)Nc2ccc(F)c([C@]3(C)N=C(N)C[C@@H]3C(F)(F)F)c2)co1 [Compound 35, N-[3-[(2R,3S)-5-amino-2-methyl-3-(trifluoromethyl)-3,4-dihydropyrrol-2-yl]-4-fluoro-phenyl]-2-methyl-oxazole-4-carboxamide] | > 10000 nM | – | –
Cc1nc(C(=O)Nc2ccc(F)c([C@@]3(C)N=C(N)C[C@H]3C(F)(F)F)c2)co1 [Compound 36, N-[3-[(2S,3R)-5-amino-2-methyl-3-(trifluoromethyl)-3,4-dihydropyrrol-2-yl]-4-fluoro-phenyl]-2-methyl-oxazole-4-carboxamide] | 1020 nM | – | –
COc1cccnc1Nc1ccc(F)c([C@@]2(C)N=C(N)C[C@H]2C(F)(F)F)c1 [Compound 37, N-[3-[(2S,3R)-5-amino-2-methyl-3-(trifluoromethyl)-3,4-dihydropyrrol-2-yl]-4-fluoro-phenyl]-3-methoxy-pyridin-2-amine] | > 10000 nM | – | –
C[C@]1(c2cc(Nc3ncccc3C#N)ccc2F)N=C(N)C[C@H]1C(F)(F)F [Compound 38, 2-[3-[(2S,3R)-5-amino-2-methyl-3-(trifluoromethyl)-3,4-dihydropyrrol-2-yl]-4-fluoro-anilino]pyridine-3-carbonitrile] | > 10000 nM | – | –
C[C@@]1(c2cc(Nc3ncccc3C#N)ccc2F)N=C(N)C[C@@H]1C(F)(F)F [Compound 39, 2-[3-[(2R,3S)-5-amino-2-methyl-3-(trifluoromethyl)-3,4-dihydropyrrol-2-yl]-4-fluoro-anilino]pyridine-3-carbonitrile] | 2950 nM | – | –
C[C@]1(c2cc(NC(=O)c3ccc(Br)cn3)ccc2F)N=C(N)C[C@H]1C(F)(F)F [Compound 41, N-[3-[(2S,3R)-5-amino-2-methyl-3-(trifluoromethyl)-3,4-dihydropyrrol-2-yl]-4-fluoro-phenyl]-5-bromo-pyridine-2-carboxamide] | > 10000 nM | – | –
